Measured values taken from US9199939B2, “Quinoline amide M1 receptor positive allosteric modulators” (Merck Sharp & Dohme Corp., priority 2009, dated 2015).
pEC50: −log10 of the molar value.

Target: T1, acetylcholine muscarinic M1 receptor (Homo sapiens, UniProt P11229)
T1 construct: expressed in transfected cells; host or cells: CHOnfat (CHO cells; also called CHOK1/hM1)
T1 sequence (P11229 1-460): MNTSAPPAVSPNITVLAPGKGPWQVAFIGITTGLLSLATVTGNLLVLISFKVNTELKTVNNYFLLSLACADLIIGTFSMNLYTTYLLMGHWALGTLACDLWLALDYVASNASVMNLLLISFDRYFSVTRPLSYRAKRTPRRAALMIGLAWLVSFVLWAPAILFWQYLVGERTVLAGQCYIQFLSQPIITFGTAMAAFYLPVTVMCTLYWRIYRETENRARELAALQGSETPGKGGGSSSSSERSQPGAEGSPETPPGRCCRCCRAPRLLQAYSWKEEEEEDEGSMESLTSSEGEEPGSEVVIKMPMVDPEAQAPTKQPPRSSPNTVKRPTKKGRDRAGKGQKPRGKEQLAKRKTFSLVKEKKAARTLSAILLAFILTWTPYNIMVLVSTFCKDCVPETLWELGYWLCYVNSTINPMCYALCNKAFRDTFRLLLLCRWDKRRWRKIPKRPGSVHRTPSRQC
Test: Muscarinic M1 FLIPR intracellular calcium assay for positive allosteric modulators
Format: cell-based
Conditions: not given
Protocol: The assay studies the effect of one or several concentrations of test compounds on basal or acetylcholine-stimulated Ca^2+ levels using FLIPR.
Compounds are prepared and subjected to a preincubation period of 4 min. Thereafter, a single EC20 concentration of acetylcholine is added to each well (3 nM final). The intracellular Ca^2+ level of each sample is measured and compared to an acetylcholine control to determine any modulatory activity.
Cells: CHOnfat/hM1, hM2, hM3 or hM4 cells are plated 24 hr before the assay at a density of 18,000 cells/well (100 μL) in a 384 well plate. CHOnfat/hM1 and CHOnfat/hM3 Growth Medium: 90% DMEM (Hi Glucose); 10% HI FBS; 2 mM L-glutamine; 0.1 mM NEAA; Pen-Strep; and 1 mg/ml Geneticin, are added. For M2Gqi5CHOnfat and M4Gqi5CHOnfat cells, an additional 600 ug/ml hygromycin is added.
Equipment: 384 well plate, 120 μL addition plate; 96-well Whatman 2 ml Uniplate Incubator, 37° C., 5% CO2; Skatron EMBLA-384 Plate Washer; Multimek Pipetting System; Genesis Freedom 200 System; Mosquito System; Temo Nanolitre Pipetting System; and FLIPR^384 Fluorometric Imaging Plate Reader System are used.
Buffers. Assay Buffer: Hanks Balanced Salt Solution, with 20 mM Hepes, 2.5 mM Probenecid (Sigma P-8761) first dissolved in 1 N NaOH, 1% Bovine Serum Albumin (Sigma A-9647). Dye Loading Buffer: Assay Buffer plus 1% Fetal Bovine Serum and Fluo-4AM/Pluronic Acid Mixture. 2 mM Fluo-4AM ester stock in DMSO (Molecular Probes F-14202) Concentration of 2 μM in buffer for a final concentration of 1 μM in Assay. 20% Pluronic Acid Solution stock, with concentration of 0.04% in Buffer, 0.02% in Assay.
65 μL of 2 mM Fluo-4AM are mixed with 130 μL of 20% Pluronic Acid. The resulting solution and 650 μL FBS is added to the assay buffer for a total volume of 65 mL. Positive Controls: 4-Br-A23187: 10 mM in DMSO; final concentration 10 μM. Acetylcholine: 10 mM in water, working stock at both 20 μM and 30 μM in assay buffer, final concentration of 10 μM. This is used to check the maximum stimulation of the CHOK1/hM1 cells. 20 μM (2×) acetylcholine is added in the preincubation part of the assay, and the 30 μM (3×) stock is added in the second part. (EC20)Acetylcholine: 10 mM in water, working stock of 9 nM (3×), and final concentration in assay is 3 nM. This is used after the preincubation with test compounds. Addition of the EC20 Acetylcholine to each well with a test compound will ascertain any modulator activity. 24 wells contain 3 nM Acetylcholine alone as a control.
Determining Activity of Putative Compounds:
Screening Plate Compounds are titrated in 96-well plates (columns 2-11), 100% DMSO, started at a concentration of 15 mM (150× stock concentration), and 3-fold serial dilutions using Genesis Freedom200 System. Four 96-well plates are combined into a 384-well plate using Mosquito Nanolitre Pipetting System by transferring 1 μl of serial diluted compounds to each well, and 1 mM acetylcholine (100× stock concentration) were added as a control. Using Temo, 49 μl assay buffer is added to each well of the 384-well plate right before assay.
In a 96-well Whatman 2 ml Uniplate, 9 nM Acetylcholine (3×) is pipetted into wells corresponding to the screening compounds, and into control wells. The 30 μM acetylcholine control (3×) is added into control wells, and the 3× agonist plate is transferred into a 384 well plate.
Cells are washed three times with 100 μL of buffer, leaving 30 μL of buffer in each well. Using Multimek, 30 μL of Dye Loading Buffer is added into each well and incubated at 37° C., 5% CO2 for up to one hr.
After 60 min, the cells are washed three times with 100 μL of buffer, leaving 30 μL of buffer in each well. The cell plate, screening plate, and agonist addition plates are placed on the platform in the FLIPR and the door closed. A signal test to check background fluorescence and basal fluorescence signal is performed. Laser intensity is adjusted if necessary. […]

Compound	pEC50
COc1ccc(Cc2cc(C(=O)N[C@H]3CCOC[C@@H]3O)nc3c(F)cccc23)cn1 [Example 19, 8-Fluoro-N-[(3R,4S)-3-hydroxytetrahydro-2H-pyran-4-yl]-4-[(6-methoxypyridin-3-yl)methyl]quinoline-2-carboxamide]	7.72

Same assay, conditions: IP = inflection point calculated from FLIPR values; CHOnfat/hM1 cells; 4 min preincubation, then EC20 acetylcholine (3 nM final); read-out: IP Value

Compound	pEC50
O=C(N[C@H]1CCCC[C@@H]1O)c1cc(Cc2ccc(Cl)nc2)c2ccccc2n1 [Example 1, 4-[(6-Chloropyridin-3-yl)methyl]-N-[(1S,2S)-2-hydroxycyclohexyl]quinoline-2-carboxamide]	7.39
Cc1ccc(Cc2cc(C(=O)N[C@H]3CCCC[C@@H]3O)nc3ccccc23)cn1 [Example 2, N-[(1S,2S)-2-Hydroxycyclohexyl]-4-[(6-methylpyridin-3-yl)methyl]quinoline-2-carboxamide]	6.84
O=C(N[C@H]1CCCC[C@@H]1O)c1cc(Cc2ccc(Cl)nc2)c2ccccc2[n+]1[O-] [Example 3, 4-[(6-Chloropyridin-3-yl)methyl]-N-[(1S,2S)-2-hydroxycyclohexyl]quinoline-2-carboxamide 1-oxide]	6.83
O=C(N[C@H]1CCCC[C@@H]1O)c1cc(Cc2ccc(C3CC3)nc2)c2ccccc2n1 [Example 4, 4-[(6-Cyclopropylpyridin-3-yl)methyl]-N-[(1,2)-2-hydroxycyclohexyl]quinoline-2-carboxamide]	7.41
Cn1cc(-c2ccc(Cc3cc(C(=O)N[C@H]4CCCC[C@@H]4O)nc4ccccc34)cn2)cn1 [Example 5, N-[(1S,2S)-2-Hydroxycyclohexyl]-4-{[6-(1-methyl-1H-pyrazol-4-yl)pyridin-3-yl]methyl}quinoline-2-carboxamide]	8.22
O=C(N[C@H]1CCCC[C@@H]1O)c1cc(Cc2cccnc2)c2ccccc2n1 [Example 6, N-[(1S,2S)-2-Hydroxycyclohexyl]-4-(pyridin-3-ylmethyl)quinoline-2-carboxamide]	7.09
CSc1ccc(Cc2cc(C(=O)N[C@H]3CCCC[C@@H]3O)nc3ccccc23)cn1 [Example 7, N-[(1S,2S)-2-Hydroxycyclohexyl]-4-{[6-(inethylsulfanyl)pyridin-3-yl]methyl}quinoline-2-carboxamide]	7.43
Cn1cc(-c2ccc(Cc3cc(C(=O)N[C@H]4CCCC[C@@H]4O)nc4ccccc34)c[n+]2[O-])cn1 [Example 8, N-[(1S,2S)-2-Hydroxycyclohexyl]-4-{[6-(1-methyl-1H-pyrazol-4-yl)-1-oxidopyridin-3-yl]methyl}quinoline-2-carboxamide]	7.68
Cn1cc(-c2ccc(Cc3cc(C(=O)N[C@H]4CCCC[C@@H]4F)nc4ccccc34)cn2)cn1 [Example 9, N-[(1S,2S)-2-Fluorocyclohexyl]-4-{[6-(1-methyl-1H-pyrazol-4-yl)pyridin-3-yl]methyl}quinoline-2-carboxamide]	6.58
COc1ccc(Cc2cc(C(=O)N[C@H]3CCOC[C@@H]3O)nc3c(F)cccc23)c[n+]1[O-] [Example 21, 8-Fluoro-N-[(3R,4S)-3-hydroxytetrahydro-2H-pyran-4-yl]-4-[(6-methoxy-1-oxidopyridin-3-yl)methyl]quinoline-2-carboxamide]	6.68

Further lines, results first:

pEC50	Compound
7.77	Cn1cc(-c2ccc(Cc3cc(C(=O)N[C@H]4COCC[C@@H]4O)nc4ccccc34)cn2)cn1 [Example 10, N-[(3S,4S)-4-Hydroxytetrahydro-2H-pyran-3-yl]-4-{[6-(1-methyl-1H-pyrazol-4-yl)pyridin-3-yl]methyl}quinoline-2-carboxamide]
7.28	COc1ccc(Cc2cc(C(=O)N[C@H]3CCOC[C@@H]3O)nc3ccccc23)cn1 [Example 11, N-[(3R,4S)-3-Hydroxytetrahydro-2H-pyran-4-yl]-4-[(6-methoxypyridin-3-yl)methyl]quinoline-2-carboxamide]
7.22	CCOc1ccc(Cc2cc(C(=O)N[C@H]3CCOC[C@@H]3O)nc3ccccc23)cn1 [Example 12, 4-[(6-Ethoxypyridin-3-yl)methyl]-N-[(3R,4S)-3-hydroxytetrahydro-2H-pyran-4-yl]quinoline-2-carboxamide]
7.34	COc1cc(Cc2cc(C(=O)N[C@H]3CCOC[C@@H]3O)nc3ccccc23)ccn1 [Example 13, N-[(3R,4S)-3-Hydroxytetrahydro-2H-pyran-4-yl]-4-[(2-methoxypyridin-4-yl)methyl]quinoline-2-carboxamide]
6.50	CSc1ncc(Cc2cc(C(=O)N[C@H]3CCOC[C@@H]3O)nc3ccccc23)cn1 [Example 14, N-[(3R,4S)-3-Hydroxytetrahydro-2H-pyran-4-yl]-4-{[2-(methylsulfanyl)pyrimidin-5-yl]methyl}quinoline-2-carboxamide]
7.28	COc1ccc(C(F)c2cc(C(=O)N[C@H]3CCOC[C@@H]3O)nc3ccccc23)cn1 (stereo partly drawn) [Example 15, 4-[Fluoro(6-methoxypyridin-3-yl)methyl]-N-[(3R,4S)-3-hydroxytetrahydro-2H-pyran-4-yl]quinoline-2-carboxamide hydrate]
7.66	O=C(N[C@H]1CCOC[C@@H]1O)c1cc(Cc2ccc(Cl)nc2)c2cccc(F)c2n1 [Example 16, 4-[(6-Chloropyridin-3-yl)methyl]-8-fluoro-N-[(3R,4S)-3-hydroxytetrahydro-2H-pyran-4-yl]quinoline-2-carboxamide]
7.74	O=C(N[C@H]1CCOC[C@@H]1O)c1cc(Cc2ccc(C(F)F)nc2)c2cccc(F)c2n1 [Example 17, 4-{[6-(Difluoromethyl)pyridin-3-yl]methyl}-8-fluoro-N-[(3R,4S)-3-hydroxytetrahydro-2H-pyran-4-yl]quinoline-2-carboxamide]
6.61	COc1ccc(C(F)c2cc(C(=O)N[C@H]3CCOC[C@@H]3O)nc3c(OC)cccc23)cn1 (stereo partly drawn) [Example 18, 4-[Fluoro(6-methoxypyridin-3-yl)methyl]-N-[(3R,4S)-3-hydroxytetrahydro-2H-pyran-4-yl]-8-methoxyquinoline-2-carboxamide]
7.19	O=C(N[C@H]1CCOC[C@@H]1O)c1cc(Cc2ccc(O)nc2)c2cccc(F)c2n1 [Example 20, 8-Fluoro-4-[(6-hydroxypyridin-3-yl)methyl]-N-[(3R,4S)-3-hydroxytetrahydro-2H-pyran-4-yl]quinoline-2-carboxamide]
7.57	COc1cc(Cc2cc(C(=O)N[C@H]3CCOC[C@@H]3O)nc3c(F)cccc23)ccn1 [Example 22, 8-Fluoro-N-[(3R,4S)-3-hydroxytetrahydro-2H-pyran-4-yl]-4-[(2-methoxypyridin-4-yl)methyl]quinoline-2-carboxamide]
